Patent US20090118365A1, “Use of Prodrugs of GABA B Agonists for Treating Neuropathic and Musculoskeletal Pain” (XenoPort, Inc, priority 2007, published 2009)

Assays:
[1] = rat, in vivo, 10 mg
Description: Rats were obtained commercially and were pre-cannulated in the both the ascending colon and the jugular vein. Animals were conscious at the time of the experiment. All animals were fasted overnight and until 4 hours post-dosing. […] Blood samples were analyzed as described according to the following procedure. […]
An API 2000 LC/MS/MS spectrometer equipped with Shimadzu 10ADVp binary pumps and a CTC HTS-PAL autosampler was used in the analysis. […] The peaks were integrated using Analyst 1.2 quantitation software.

[2] = male, cynomolgus monkey, in vivo
Excerpt: The following method can be used to determine the oral bioavailability of GABAB agonist prodrugs provided by the present disclosure in Cymologous monkeys, and therefore the appropriateness of the GABAB agonist prodrugs for use in oral sustained release dosage forms for treating neuropathic and musculoskeletal pain.
All plasma samples were subsequently analyzed for (R)-baclofen and intact prodrug using the LC/MS/MS assay described above.

[3] = in vivo; cited from earlier work

SMILES	maximum plasma concentration of (R)-baclofen (Cmax) relative to colonic administration of (R)-baclofen itself [1]	oral bioavailability as (R)-baclofen [2]	elimination half-life [3]
CC(C)C(=O)O[C@@H](OC(=O)NC[C@H](CC(=O)O)c1ccc(Cl)cc1)C(C)C [compound (4), (3R)-4-{[(1S)-2-methyl-1-(2-methylpropanoyloxy)propoxy]carbonylamino}-3-(4-chlorophenyl)butanoic acid]	> 2 fold	greater than 80%	
NCC(CC(=O)O)c1ccc(Cl)cc1 (racemic) [baclofen, (±)-4-Amino-3-(4-chlorophenyl)butanoic acid]			3 to 4 h
